Laboratory results reported in patent US7745410B2, “Bladder tumor-targeting peptide and use thereof” (Kyungpook National University Industry-Academica …, priority 2006, dated 2010).
Positions of bridges follow the written chain, without caps; N, C: chain ends. No end group written: not given here. *: point of attachment. FITC = O=C1OC2(c3ccc(O)cc3Oc3cc(O)ccc32)c2ccc(NC(=S)*)cc21

How the values were obtained:
bladder tumor tissue = assay: In vivo targeting after injection into the bladder via the urethra (BBN-induced bladder tumor); parameters: species or system rat; conditions: 50 μM injected into bladder via urethra, 30 minutes, FIG. 5
From the text: FIG. 5 is a set of photographs showing the binding specificity to bladder tumor tissue of the peptide according to the present invention having FITC attached thereto, after injecting the peptide into the mouse bladder in which a bladder tumor is induced, wherein the green fluorescence represents the peptide according to the present invention, and the red fluorescence represents an epithelial cell stained with cytokeratin;
(§1) First, 4 week-aged F344 rats (n=10) (Hyochang Science) were fed with water containing 0.05% of N-butyl-N-4-hydroxybutylnitrosoamine (BBN) for 8 weeks to induce a bladder tumor.
50 μM of FITC-CSNRDARRC peptide described in Example <2-2> was injected into the bladder of each of the mouse, in which a bladder tumor was induced, and a normal mouse via the urethra, followed by reaction for 30 minutes. Then, the bladder was removed from each mouse and a frozen section was provided. The frozen section was stained by H&E staining according to a method known to one skilled in the art. […] Then, 1:200 dilution of a secondary antibody, to which a red fluorescence material (Alexa red) was bonded, was allowed to react with the cells at room temperature for 1 hour, followed by treatment with a mounting solution containing DAPI. Next, the cells were observed by using a fluorescence microscope.

bladder tumor cells = assay: In vivo targeting after tail vein injection (BBN-induced bladder tumor); parameters: species or system rat; conditions: final 50 μM in blood
From the text: FIG. 6 is a set of photographs showing the in vivo targeting capability of the peptide according to the present invention, after injecting the peptide having FITC attached thereto into the tail venous vessel of a mouse in which a bladder tumor is induced, wherein the green fluorescence represents the peptide according to the present invention, and the red fluorescence represents an epithelial cell stained with cytokeratin;
as §1
(§2) The FITC-peptide 1 was injected into the mouse, in which a bladder tumor induced, and into the normal mouse via the tail venous to a final concentration of 50 μM in the blood, followed by circulation for 2 hours. Additionally, to determine whether the peptide according to the present invention specifically targets the bladder tumor in vivo, a malignant melanoma was induced in a mouse (Hyochang Science), and the peptide according to the present invention was injected into the mouse in the same manner as described above. Then, the bladder was removed from each mouse to prepare a frozen section, which, in turn, was stained by H&E staining or cytokeratin staining. Each section was observed by using a fluorescence microscope.

[1] = system: human bladder tumor tissue; assay: Binding of FITC-peptide to frozen tissue sections (fluorescence microscopy); conditions: 10 μM peptide, 4° C., 1 hour, FIG. 4
Description: FIG. 4 is a set of photographs showing the binding specificity to the frozen section of human bladder tumor cells of the peptide according to the present invention having FITC attached thereto, wherein the green fluorescence represents the peptide according to the present invention, and the blue fluorescence represents the nucleus stained with DAPI;
Next, 10 μM of the peptide, FITC-CSNRDARRC, was allowed to react with the tissues at 4° C. for 1 hour. As a control, a peptide (SEQ ID NO: 10; CDASRRNRC), which had the same number of amino acids as the peptide according to the present invention but included a randomly modified amino acid sequence between both terminal cystein residues, was used. After the reaction of each peptide, a mounting solution (molecular Probe) containing a nucleus staining reagent, DAPI (4′,6-diamidino-2-phenylindole), was treated on the surface of the slide according to the method known to one skilled in the art. Then, the slide was observed by using a fluorescence microscope.

[2] = system: malignant melanoma tissue; assay: In vivo targeting after tail vein injection in mouse with induced malignant melanoma; conditions: final 50 μM in blood, 2 hours
Description: k: microscopic photograph of malignant melanoma of mouse injected with the peptide according to the present invention and stained with H & E; and
l: fluorescence microscopic photograph of cancer tissue of mouse injected with the peptide according to the present invention and stained with DAPI; and
as §2

[3] = system: cells separated from the urine of a patient suffering from bladder tumor; assay: Binding of FITC-peptide to cells collected from urine (fluorescence microscopy); assay type: cell-based, human; conditions: 4° C., 1 hour; FIG. 7
Description: FIG. 7 is a set of fluorescence microscopic photographs showing the binding specificity of the target peptide having FITC attached thereto to cells separated from the urine of a patient suffering from bladder tumor, wherein the green fluorescence represents the peptide according to the present invention, and the blue fluorescence represents the nucleus stained with DAPI;
Urine of a patient that was in the hospital for surgical operation on the bladder tumor was centrifuged with 1500 rpm at 4° C. for 10 minutes to collect cells. As a control, bladder cells, collected from the urine of a normal human in the same manner as described above, were used. Next, the collected cells were allowed to react with the FITC-peptide 1 described in Example <2-2> and the control peptide (SEQ ID NO: 10) at 4° C. for 1 hour. After staining the cells with DAPI, the cells were transferred onto a slide and observed with a fluorescence microscope. Meanwhile, the cells were stained with the PAP staining method (Papanicolau and Marshall, Science 101:519, 1945), currently used as a method for the diagnosis of bladder tumor, to observe the presence of tumor cells.

[4] = system: BBN-induced bladder tumor; assay: In vivo micro PET imaging after intravenous injection of radiolabeled peptides; parameters: species or system rat; conditions: 14 hours after intravenous injection; tumor-bearing F344 rats; 380 μCi peptide 1, 313 μCi control; FIG. 8
Description: For radioiodination, each of CSNRDARRC peptide (SEQ ID NO: 1) and CDASRRNRC control peptide (SEQ ID NO: 10) was added with a tyrosine residue at the N-terminus during synthesis. […] The synthetic peptide was labeled with [131I]NaI by using Iodo-bead (Pierce Biochemical Co., Rockford, Ill.). The bead was washed with phosphate-buffered saline (PBS), pH 7.2 and dried on filter paper for 5 min. The washed bead was added to a solution of [131I]NaI (100 MBq) in PBS. After shaking at RT for 5 min, the peptide solution (14 mg in 20 mL distilled water) was added to the [131I]NaI solution containing Iodo-bead. [131I]NaI (T1/2=[…]) was purchased from Korea Institute of Radiology and Science (KIRAMS; Seoul, Korea). The reaction was allowed to proceed for 15 min at RT by gentle shaking and then stopped by the removal of the bead out of the reaction tube. The 131I-incorporation yield measured by radio-TLC was 47% (silica, 10% ammonium acetate:methanol=30:70). […] The radiochemical purity of final solution was measured to be over 81.2%. […]
In contrast, uptake of the control peptide (313 μCi) was minimal (FIG. 8 D-F). These findings indicate that the radioactivity shown in rat bladder is not a non-specific one from urinary excretion of the radiolabeled peptides but a specific one from the uptake of the peptide by bladder tumor tissues.

[5] = system: bladder tumor cells separated from the human bladder tissue; assay: Binding of phage clones to bladder tumor cells and normal bladder cells from patient tissue (phage titer); assay type: cell-based; conditions: phage clones of Example 1
Description: FIG. 3 is a graph showing the binding specificity of six positive phage clones to the bladder tumor cells separated from the human bladder tissue and to the normal bladder cells;
Bladder tumor cells were separated from fresh bladder tumor tissue obtained from six patients with a bladder tumor by transurethral resection of bladder tumor, according to a known method. The cells were measured for the specific binding of the six individual phage clones (SEQ ID NO: 1 to SEQ ID NO: 6) described in Example 1 to the tumor cells and compared their binding to that of the normal cells. First, bladder tumor tissue and normal bladder tissue were pulverized finely to provide cell suspensions, and the six phages (5×10^9 pfu) were allowed react with the cells at 4° C. for 2 hours. A non-recombinant phage, T7 415-1b phage, was used as a control phage. Next, tumor cells and the normal epithelial cells were separated from the cell suspensions formed from the tumor tissue and the normal tissue by using magnetic beads coated with epithelial cell antibodies, in the same manner as described in Example <1-2>. Then, phages were detected from the cells and measured for the titer of phages, in the same manner as described in Example <1-2>.

Substance	fluorescence in epithelial cells at the site where a bladder tumor was induced (bladder tumor tissue)	fluorescence in epithelial cells covering the normal bladder (bladder tumor tissue; normal animal)	detection of peptide in lung tissue of a normal mouse (bladder tumor cells; 2 hours)	detection of peptide in normal bladder cells (bladder tumor cells; 2 hours, normal animal)	targeting of bladder tumor cells after injection into the blood (bladder tumor cells; circulation 2 hours, FIG. 6)	binding to bladder tumor tissue [1]	detection of peptide in malignant melanoma tissue [2]	fluorescence in control cells (urine of a normal human) [3]	fluorescence/binding in urine cells of the patient suffering from bladder tumor [3]	uptake in bladder on micro PET images [4]	binding capability among the six phage clones [5]
FITC-CSNRDARRC ({FITC}-CSNRDARRC; disulfide 1-9) [FITC-peptide 1, peptide 1 with FITC (fluorescein isothiocyanate) linked to its amino terminal]	green fluorescence was observed	no fluorescence was observed	not detected	not detected	targets the bladder tumor cells	bonded specifically	not detected	fluorescence was not detected	green fluorescence was observed		
CDASRRNRC (YCDASRRNRC; disulfide 2-10; numbers in words are those of the source; also: 124I radiolabel) [control peptide, radioiodinated with added N-terminal tyrosine for PET, reference compound]						substantially showed no binding			could not be bonded	minimal	
CSNRDARRC (disulfide 1-9; not fully specified (N-terminus)) [peptide 1]											highest binding capability
